Earlier results on 2 molecules are cited in US20070105793A1, “Compositions and methods using nicotinic acid for treatment of hypercholesterolemia, hyperlipidemia nd cardiovascular disease” (priority 2005, published 2007).

The conditions of data set [1]: in vivo.
The conditions of data set [2]: after ingestion.
In a further data set the test system is β-thromboglobulin. To be noted: in vivo.

With `O=C(O[C@H]1[C@H](OC(=O)c2cccnc2)[C@@H](OC(=O)c2cccnc2)[C@H](OC(=O)c2cccnc2)[C@@H](OC(=O)c2cccnc2)[C@H]1OC(=O)c1cccnc1)c1cccnc1` [IHN, inositol hexanicotinate], in data set [1], the flush result was ““zero” flush” and the “impact on blood sugar” value is given as “no negative impact on blood sugar”. In addition, the “time of release of niacin into the system by hydrolysis” value in data set [2] was “around 10 hours”.

In the case of `O=C(O)c1cccnc1` [niacin, nicotinic acid], the “effect on β-thromboglobulin” value in the data set with β-thromboglobulin is listed as “does not have a favorable effect on β-thromboglobulin”.
